In ChEMBL document CHEMBL4011599, “Coumarin sulfonates: New alkaline phosphatase inhibitors; in vitro and in silico studies” (Eur J Med Chem, 2017):

How the values were obtained:
[1] = target: T1, Alkaline phosphatase, tissue-nonspecific isozyme (Homo sapiens, UniProt P05186); assay: Inhibition of human TNAP using CDP-star as substrate pretreated for 10 mins followed by substrate addition measured after 10 mins by […] method
T1 sequence (P05186 whole entry): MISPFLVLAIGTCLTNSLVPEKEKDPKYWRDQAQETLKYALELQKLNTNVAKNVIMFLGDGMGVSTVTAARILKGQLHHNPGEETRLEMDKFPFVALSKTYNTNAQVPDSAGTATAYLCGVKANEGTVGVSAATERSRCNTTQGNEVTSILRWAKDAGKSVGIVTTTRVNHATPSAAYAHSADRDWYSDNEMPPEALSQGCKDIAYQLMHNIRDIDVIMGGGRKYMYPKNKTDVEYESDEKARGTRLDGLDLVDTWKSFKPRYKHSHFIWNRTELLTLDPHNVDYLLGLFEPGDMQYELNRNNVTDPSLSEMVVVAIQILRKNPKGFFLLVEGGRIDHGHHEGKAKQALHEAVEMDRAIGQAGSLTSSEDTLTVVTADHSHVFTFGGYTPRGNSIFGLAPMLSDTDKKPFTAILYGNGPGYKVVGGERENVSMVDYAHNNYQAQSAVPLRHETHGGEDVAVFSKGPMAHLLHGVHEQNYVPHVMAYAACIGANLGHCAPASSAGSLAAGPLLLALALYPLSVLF

[2] = target: T2, Intestinal-type alkaline phosphatase (Homo sapiens, UniProt P09923); assay: Inhibition of human IAP using CDP-star as substrate pretreated for 10 mins followed by substrate addition measured after 10 mins by […] method
Target sequence in this assay (P09923 whole entry): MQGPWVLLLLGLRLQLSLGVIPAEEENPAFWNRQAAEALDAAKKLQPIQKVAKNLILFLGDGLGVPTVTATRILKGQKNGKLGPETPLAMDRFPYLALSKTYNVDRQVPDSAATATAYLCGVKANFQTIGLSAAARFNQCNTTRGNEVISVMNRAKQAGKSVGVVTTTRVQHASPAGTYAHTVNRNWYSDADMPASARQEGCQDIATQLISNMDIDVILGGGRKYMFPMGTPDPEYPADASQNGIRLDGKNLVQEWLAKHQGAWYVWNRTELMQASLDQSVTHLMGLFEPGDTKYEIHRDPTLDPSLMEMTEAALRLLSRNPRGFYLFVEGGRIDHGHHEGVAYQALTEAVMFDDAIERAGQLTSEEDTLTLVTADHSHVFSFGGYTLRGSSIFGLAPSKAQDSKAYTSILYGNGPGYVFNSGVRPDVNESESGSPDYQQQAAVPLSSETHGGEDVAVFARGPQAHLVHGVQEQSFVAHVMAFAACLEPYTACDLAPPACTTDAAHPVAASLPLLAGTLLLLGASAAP

[3] = target: T2, Intestinal-type alkaline phosphatase; assay: Potency index, ratio of levamisole IC50 to compound IC50 for human IAP
Target sequence in this assay (P09923 20-503 limits assumed): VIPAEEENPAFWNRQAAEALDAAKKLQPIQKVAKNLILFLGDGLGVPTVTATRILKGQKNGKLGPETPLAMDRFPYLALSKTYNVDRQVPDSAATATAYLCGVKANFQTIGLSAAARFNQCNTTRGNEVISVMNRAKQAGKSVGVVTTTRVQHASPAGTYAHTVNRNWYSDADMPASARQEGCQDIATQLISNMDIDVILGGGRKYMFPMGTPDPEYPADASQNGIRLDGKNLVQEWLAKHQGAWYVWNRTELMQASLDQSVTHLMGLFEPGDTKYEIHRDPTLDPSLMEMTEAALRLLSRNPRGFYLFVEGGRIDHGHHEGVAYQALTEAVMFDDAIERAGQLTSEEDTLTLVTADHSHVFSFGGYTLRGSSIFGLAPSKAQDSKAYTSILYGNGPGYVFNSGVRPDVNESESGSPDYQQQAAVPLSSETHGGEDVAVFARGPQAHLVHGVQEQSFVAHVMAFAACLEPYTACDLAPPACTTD

| IC50 ([1]; read-out: IC50) [nM] | IC50 ([2]; read-out: IC50) [nM] | IC50 [2] | IC50 [1] | Ratio IC50 [3] | Compound |
| --- | --- | --- | --- | --- | --- |
| 10300 | 5520 | – | – | – | Cc1c(Cl)c(=O)oc2cc(OS(=O)(=O)c3ccccc3)ccc12 |
| 1990 | – | Not Active | – | – | Cc1c(C#N)c(=O)oc2cc(OS(C)(=O)=O)ccc12 |
| 1640 | 3220 | – | – | – | CCCCS(=O)(=O)Oc1ccc2c(C)c(Cl)c(=O)oc2c1 |
| 100000 | – | – | – | – | N[C@@H](Cc1ccccc1)C(=O)O [PHENYLALANINE] |
| 2470 | 2260 | – | – | – | Cc1c(C#N)c(=O)oc2cc(OS(=O)(=O)c3cc(Cl)ccc3Cl)ccc12 |
| 2420 | 5160 | – | – | – | Cc1c(C#N)c(=O)oc2cc(OS(=O)(=O)c3cccc([N+](=O)[O-])c3)ccc12 |
| – | 20200 | – | – | – | c1ccc([C@H]2CN3CCSC3=N2)cc1 [LEVAMISOLE] |
| 2310 | 2720 | – | – | – | Cc1cc(=O)oc2cc(OS(=O)(=O)c3ccc(Cl)c([N+](=O)[O-])c3)ccc12 |
| – | 4060 | – | Not Active | – | CCS(=O)(=O)Oc1ccc2c(C)c(C#N)c(=O)oc2c1 |
| 3530 | – | Not Active | – | – | Cc1c(C#N)c(=O)oc2cc(OS(=O)(=O)c3ccccc3)ccc12 |
| 920 | 2810 | – | – | 7 | CCCCCCCCS(=O)(=O)Oc1ccc2c(C)c(C#N)c(=O)oc2c1 |
| 920 | 10300 | – | – | – | CCCCCCCCS(=O)(=O)Oc1ccc2c(C)cc(=O)oc2c1OS(=O)(=O)CCCCCCCC |
